Assay results taken from patent US20180298024A1, “CORTISTATIN ANALOGS AND USES THEREOF” (President and Fellows of Harvard College, priority 2015, published 2018).
Several values for one entry are separate records, joined by “and”; a condition that tells them apart may be missing. Equal values may be shown once.

How the values were obtained:
off-targets (Panlabs) = assay: Panlab off-target assay panel; assay type: binding; conditions: 10 μM; for number of targets with ≥75% inhibition: Safety Panel = 28 binding assays (Eurofins Panlabs)
Experimental: Compounds A, B, C, and D were tested in Panlab assays to evaluate potential off-target activity using standard assay kits. Methods employed in these studies have been adapted from the scientific literature to maximize reliability and reproducibility. Reference standards were run as an integral part of each assay to ensure the validity of the results obtained.
IC50 values were determined by a non-linear, least squares regression analysis using MathIQ™ (ID Business Solutions Ltd., UK). Where inhibition constants (Ki) are presented, the Ki values were calculated using the equation of Cheng and Prusoff (Cheng, Y., Prusoff, W. H., Biochem. Pharmacol. 22:3099-3108, 1973) using the observed IC50 of the tested compound, the concentration of radioligand employed in the assay, and the historical values for the KD of the ligand (obtained experimentally at Eurofins Panlabs, Inc.). Where presented, the Hill coefficient (nH), defining the slope of the competitive binding curve, was calculated using MathIQ™.

[1] = molecular target: hERG (human ether-à-go-go-related gene) potassium channel (Homo sapiens, UniProt Q12809); assay: cell-based; conditions: for IC50: hERG IC50, QPatch HT, room temperature
Sequence of hERG (human ether-à-go-go-related gene) potassium channel (Q12809 whole entry): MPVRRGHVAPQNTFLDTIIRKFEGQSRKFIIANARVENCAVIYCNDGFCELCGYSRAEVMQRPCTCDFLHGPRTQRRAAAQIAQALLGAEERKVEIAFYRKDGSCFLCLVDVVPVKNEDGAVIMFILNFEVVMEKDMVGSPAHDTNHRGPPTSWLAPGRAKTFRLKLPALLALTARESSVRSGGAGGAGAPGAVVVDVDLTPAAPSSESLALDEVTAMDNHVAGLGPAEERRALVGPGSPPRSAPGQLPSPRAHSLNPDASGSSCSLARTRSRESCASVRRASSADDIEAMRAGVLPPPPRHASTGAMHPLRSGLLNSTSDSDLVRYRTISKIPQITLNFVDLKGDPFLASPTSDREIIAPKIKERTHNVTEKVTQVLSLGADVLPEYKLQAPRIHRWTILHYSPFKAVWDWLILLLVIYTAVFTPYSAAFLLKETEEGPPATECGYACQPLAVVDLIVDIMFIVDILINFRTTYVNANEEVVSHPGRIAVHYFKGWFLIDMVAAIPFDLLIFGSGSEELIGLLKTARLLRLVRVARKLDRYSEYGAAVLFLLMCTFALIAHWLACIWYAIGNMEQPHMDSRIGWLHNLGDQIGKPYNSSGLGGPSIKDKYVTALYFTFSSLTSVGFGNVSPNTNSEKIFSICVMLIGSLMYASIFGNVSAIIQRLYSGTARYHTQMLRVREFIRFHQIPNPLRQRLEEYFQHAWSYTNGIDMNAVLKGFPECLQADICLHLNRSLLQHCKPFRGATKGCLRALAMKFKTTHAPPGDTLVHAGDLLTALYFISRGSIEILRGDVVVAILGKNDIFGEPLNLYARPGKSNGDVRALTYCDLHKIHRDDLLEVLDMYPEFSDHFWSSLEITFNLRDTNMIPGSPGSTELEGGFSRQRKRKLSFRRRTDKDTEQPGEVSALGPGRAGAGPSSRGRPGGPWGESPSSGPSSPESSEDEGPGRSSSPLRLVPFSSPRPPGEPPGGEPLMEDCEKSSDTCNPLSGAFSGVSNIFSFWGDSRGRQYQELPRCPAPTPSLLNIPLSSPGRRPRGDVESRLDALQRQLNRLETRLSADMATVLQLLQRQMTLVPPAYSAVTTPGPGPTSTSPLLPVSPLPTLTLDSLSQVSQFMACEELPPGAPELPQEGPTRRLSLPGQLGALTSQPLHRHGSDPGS
Experimental: (§1) The in vitro effects of compounds A, B, C, D, E, and F on the hERG (human ether-à-go-go-related gene) potassium channel current (a surrogate for IKr, the rapidly activating, delayed rectifier cardiac potassium current) expressed in mammalian cells were evaluated at room temperature using the QPatch HT (Sophion Bioscience A/S, Denmark), an automatic parallel patch clamp system. The test articles were evaluated at 1 μM, 3 μM, […] and 30 μM. Each test article concentration was tested in at least three cells. The duration of exposure to each test article concentration was a minimum of 3 minutes.

hERG potassium channel = hERG potassium channel (Homo sapiens, UniProt Q12809); assay: in vitro; conditions: human
Sequence of hERG potassium channel (Q12809 whole entry): as above
Experimental: as §1

[2] = TurboSol solubility evaluation in physiological saline; assay type: physicochemical; conditions: HB-PS+0.3% DMSO
[3] = Tolerability study of Compound A and Compound D (body weight); assay type: in vivo, female NSG mice; conditions: for initial loss in weight: 10 mg/kg dosing group (Compound A PO, Compound D IV), recovered after dosing holiday; for tolerability: doses at or below 3 mg/kg (Compound A PO, Compound D IV)
Experimental: Twenty-five female NSG mice were randomly assigned to various treatment groups as described in Table 11. All mice were treated for 7 days unless as indicated below.
On study days zero to six (seven doses), Compound A was administered via oral gavage in a volume of 10 mL/kg and Compound D was administered via intravenous injection into the lateral tail vein in a volume of 10 mL/kg. Body weights were recorded daily for fifteen days (days zero to fourteen) and animal health was assessed daily.
Mice were monitored clinically for signs of morbidity and for body weights daily. Mice showing signs of morbidity were euthanized as per study guidelines.

CDK8 = CDK8 (Homo sapiens, UniProt P49336); assay: CDK8 Kd and residence time; assay type: binding
Sequence of CDK8 (P49336 whole entry): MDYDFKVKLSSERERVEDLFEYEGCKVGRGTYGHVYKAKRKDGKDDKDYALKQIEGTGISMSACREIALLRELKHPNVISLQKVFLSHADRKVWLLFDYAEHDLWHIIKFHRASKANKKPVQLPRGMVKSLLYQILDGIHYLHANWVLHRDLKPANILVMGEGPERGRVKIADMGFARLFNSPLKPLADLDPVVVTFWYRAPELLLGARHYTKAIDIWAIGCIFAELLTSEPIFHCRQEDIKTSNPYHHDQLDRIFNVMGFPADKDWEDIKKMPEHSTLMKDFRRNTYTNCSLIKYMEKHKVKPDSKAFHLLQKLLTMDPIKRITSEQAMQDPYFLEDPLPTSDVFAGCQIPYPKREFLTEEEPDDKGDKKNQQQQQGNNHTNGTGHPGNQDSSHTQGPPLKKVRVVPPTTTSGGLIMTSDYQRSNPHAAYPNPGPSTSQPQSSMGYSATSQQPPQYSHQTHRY
Sequence of CDK8 (P24863 whole entry partner): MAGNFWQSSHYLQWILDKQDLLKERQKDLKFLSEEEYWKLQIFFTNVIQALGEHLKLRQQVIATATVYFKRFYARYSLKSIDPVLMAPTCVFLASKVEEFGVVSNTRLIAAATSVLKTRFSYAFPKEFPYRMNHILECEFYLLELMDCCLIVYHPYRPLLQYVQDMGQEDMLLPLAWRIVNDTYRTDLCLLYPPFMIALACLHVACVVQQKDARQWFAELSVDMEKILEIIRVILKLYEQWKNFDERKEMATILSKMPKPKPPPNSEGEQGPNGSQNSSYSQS

SKNO-1 = assay: Half-maximal growth inhibition (GI50), SKNO-1; assay type: cell-based; conditions: Homo sapiens, 240 h, AML, M2, RUNX1-RUNX1T1, read-out: GI50 (nM), day 10
Experimental: (§2) Compounds A, B, C, D, and F were tested against various cell lines to probe their broad utility against cancer. Cortistatin A (CA) was also tested against the cell lines in a head to head fashion.

MOLM-14 = assay: Half-maximal growth inhibition (GI50), MOLM-14; assay type: cell-based; conditions: Homo sapiens, 240 h, AML, M5, MLL-AF9, read-out: GI50 (nM), day 10
Experimental: as §2

[4] = Pharmacokinetic profile in mice (plasma, LC-MS/MS); conditions: for Vd / clearance / AUC(0-inf) / Cmax / Tmax / bioavailability / concentration at 24 h: CD-1, mouse, plasma; for ½ life: CD-1 mice
Experimental: Formulation correction for salt content was not required for this study. Materials were vortexed and sonicated at room temperature following addition of vehicle. The solutions were maintained at ambient temperature stirring in the dark for at least 30 minutes prior to dose administration. The formulations were then vortexed and sonicated briefly to help ensure solubility.
Mice were selected from the Testing Facility's rodent colony. The animals were enrolled in the study based on acceptable health as determined by Testing Facility personnel on the day of test article administration. Animals were held in environmental acclimation for at least 48 hours (±6 hours) prior to dosing. Animals were maintained at temperatures between 16-26° C. (62-78° F.) with the humidity range between 30-70%. Animals in all groups were fasted overnight and food was returned 4 hours following dosing. Water was provided ad libitum throughout the study.
Whole blood samples for plasma were either collected from each animal by either direct vein puncture of the submandibular vein (survival blood collection) or by cardiac puncture following euthanasia with CO2 (terminal blood collection). […] Following collection, whole blood was placed into a tube containing K2EDTA and immediately placed on wet ice until processed for plasma. Whole blood samples were centrifuged at 2200×g for 10 minutes in a refrigerated centrifuge (5±3° C.) to isolate plasma. The samples were transferred to individual polypropylene containers and immediately placed on dry ice before storage at −70±10° C. until analysis. Plasma collected from undosed spare animals was pooled and analyzed as well.
Once collected the mouse plasma studies were quantitated using LCMS/MS spectroscopy to determine the concentration of compound. […] Eight calibration standards containing the analyte and internal standard imipramine were prepared and analyzed at the beginning and at the end of the sequence. A calibration curve was generated and sample concentrations calculated using the Quantitation software MassHunter.

MKPL1 = assay: Half-maximal growth inhibition (GI50), MKPL1; assay type: cell-based; conditions: Homo sapiens, 240 h, AML, M7, read-out: GI50 (nM), day 10
Experimental: as §2

[5] = Individual Data Points (% Inhibition), hERG

Structure (SMILES)	number of targets with ≥75% inhibition (off-targets (Panlabs))	IC50 [1]	inhibition at 1 µM (hERG potassium channel; Mean % hERG Inhibition) [%]	inhibition at 3 µM (hERG potassium channel; Mean % hERG Inhibition) [%]	inhibition at 10 µM (hERG potassium channel; Mean % hERG Inhibition) [%]	inhibition at 30 µM (hERG potassium channel; Mean % hERG Inhibition) [%]	Average LSU (×1000) ([2]; 1 μM)	Average LSU (×1000) ([2]; 3 μM)	Average LSU (×1000) ([2]; 10 μM)	Average LSU (×1000) ([2]; 30 μM)	solubility in the TurboSol assay [2]	Kd (CDK8) [nM]	GI50 (SKNO-1) [nM]	GI50 (MOLM-14) [nM]	Vd ([4]; iv, 3 mg/kg) [L/kg]	clearance ([4]; iv, 3 mg/kg) [mL/min/kg]	AUC(0-inf) ([4]; po, 10 mg/kg) [ng·h/mL]	Cmax ([4]; po, 10 mg/kg) [nM]	Tmax ([4]; po, 10 mg/kg) [h]	bioavailability ([4]; po, 10 mg/kg) [%]	other results
C[C@]12CC=C3C=C4CC[C@@H](O)C[C@]45CC[C@]3(O5)[C@@H]1CC[C@@H]2c1ccc2ccncc2c1 [Compound A, (3S,3aR,9R,10aR,12aS,12bR)-3-(isoquinolin-7-yl)-3a-methyl-1,2,3,3a,4,7,8,9,10,11,12,12b-dodecahydro-10a,12a-epoxybenzo[4,5]cyclohepta[1,2-e]inden-9-ol]	0	> 30000 nM	4	9	19.6	43.7	5.8 LSU (×1000)	5.1 LSU (×1000)	9.0 LSU (×1000)	41.0 LSU (×1000)	slightly insoluble at concentrations of 10 μM and 30 μM	0.23 ± 0.02	2	6	1.12	18.4	3970	3870	0.5	43.9	number of targets with greater than 50% inhibition (off-targets (Panlabs); over 100 Panlab assays): 8; Mean % hERG Inhibition ([1]; human, 3 µM): 9.2%; inhibition at 10 µM (hERG potassium channel; [5]): 17.6%; initial loss in weight [3]: approximately 15%; tolerability [3]: well tolerated; residence time (CDK8): 447 min; concentration at 24 h ([4]; po, 10 mg/kg): 1.8 nM; ½ life ([4]; IV 3 mg/kg): 4.08 h; ½ life ([4]; PO 10 mg/kg): 3.04 h; AUC(0-inf) ([4]; male, po, 20 mg/kg): 7940 ng·h/mL
C[C@]12CC=C3C=C4CC[C@@H](N5CC[C@@H](N)C5)C[C@]45CC[C@]3(O5)[C@@H]1CC[C@@H]2c1ccc2ccncc2c1 [Compound B]	8	10700 nM	4.1	18.9	44.5	82.7	2.2 LSU (×1000)	3.2 LSU (×1000)	4.5 LSU (×1000)	8.6 LSU (×1000)	slightly insoluble at 30 μM concentrations	0.19 ± 0.05	3	31	26.6	31	1060	218	2	19.8	number of targets with greater than 50% inhibition (off-targets (Panlabs); subset of 30 Panlab assays): 8; fold less hERG activity than Compound E ([1]; human): 10-100 fold; inhibition at 1 µM (hERG potassium channel; [5]): 5.4%; inhibition at 3 µM (hERG potassium channel; [5]): 17.1%; inhibition at 30 µM (hERG potassium channel; [5]): 89.4%; GI50 (MKPL1): 2 nM; concentration at 24 h ([4]; po, 10 mg/kg): 26.4 nM; ½ life ([4]; IV 3 mg/kg): 18.7 h; ½ life ([4]; PO 10 mg/kg): 9.55 h; AUC(0-inf) ([4]; male, po, 10 mg/kg): 1060 ng·h/mL
C[C@]12CC=C3C=C4CC[C@@H](N5CC(N)C5)C[C@]45CC[C@]3(O5)[C@@H]1CC[C@@H]2c1ccc2ccncc2c1 [Compound C]	4	10900 nM	5.8	17.1	49.8	75.5	2.8 LSU (×1000)	3.5 LSU (×1000)	4.9 LSU (×1000)	13.0 LSU (×1000)	slightly insoluble at 30 μM concentrations	0.22 ± 0.03	3	21	26.4	23.7	2970	462	8	42.3	number of targets with greater than 75% inhibition (off-targets (Panlabs); subset of 30 Panlab assays): 4; inhibition at 3 µM (hERG potassium channel; [5]): 12.7%; inhibition at 10 µM (hERG potassium channel; [5]): 45.8%; inhibition at 30 µM (hERG potassium channel; [5]): 66.9%; concentration at 24 h ([4]; po, 10 mg/kg): 82.5 nM; ½ life ([4]; IV 3 mg/kg): 14.7 h; ½ life ([4]; PO 10 mg/kg): 6.68 h; AUC(0-inf) ([4]; male, po, 5 mg/kg): 1480 ng·h/mL
C[C@]12CC=C3C=C4CC[C@@H](N5C[C@H](O)[C@@H](O)C5)C[C@]45CC[C@]3(O5)[C@@H]1CC[C@@H]2c1ccc2ccncc2c1 [Compound D]	3	6280 nM and 6300 nM	8	27.3	63.9	91.3	4.7 LSU (×1000)	6.4 LSU (×1000)	7.0 LSU (×1000)	16.6 LSU (×1000)	slightly insoluble at 30 μM concentrations	0.2 ± 0.02	< 1	6	5.41	18	1390	377	2	15	number of targets with greater than 75% inhibition (off-targets (Panlabs); subset of 30 Panlab assays): 3; activity in the hERG assay [1]: single digit micromolar activity; fold less hERG activity than Compound E ([1]; human): 10-100 fold; inhibition at 1 µM (hERG potassium channel; [5]): 11.5%; inhibition at 3 µM (hERG potassium channel; [5]): 25.1%; inhibition at 10 µM (hERG potassium channel; [5]): 71.6%; inhibition at 30 µM (hERG potassium channel; [5]): 97.9%; initial loss in weight [3]: approximately 20%; tolerability [3]: well tolerated; GI50 (MKPL1): 1.5 nM; concentration at 24 h ([4]; po, 10 mg/kg): 7.6 nM; ½ life ([4]; IV 3 mg/kg): 6.60 h; ½ life ([4]; PO 10 mg/kg): 4.25 h; AUC(0-inf) ([4]; male, iv, 3 mg/kg): 2780 ng·h/mL
